Among the test systems are HCT-15 colon; NCI-H23 lung; HT29 colon; OVCAR-8 ovarian; KM12 colon; SN12C renal; HCC-2998 colon; SNB-75 CNS; NCI-H522 lung; A549 NSCLC; DU-145 prostate; SK-MEL-5 melanoma; NCI/ADR-RES ovarian; U251 CNS; SF-268 CNS; HS 578T breast; SF-295 CNS; SK-OV-3 ovarian; UACC-62 melanoma.
Holding throughout (assay): inhibition of tumour cell growth, NCI panel, 48 h

Experimental findings from PubChem BioAssay (NCI) are described below.

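96-well plates; 48 h exposure; 5 concentrations. Endpoints by linear interpolation between flanking doses. Not reached: highest tested concentration assigned. GI50 is the concentration that inhibits growth by half. At the TGI there is no net growth.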

For the molecule `O=S(Nc1ccccc1)c1ccccc1Oc1ccccc1` (stereo not given), the TGI in the experiment on HCT-15 colon, in the experiment on NCI-H23 lung, in the experiment with HT29 colon, with OVCAR-8 ovarian, in the experiment on KM12 colon and with SN12C renal was over 100 µM each time. Besides, the TGI in the experiment on HCC-2998 colon is 87.1 µM; in the experiment on SNB-75 CNS, over 100 µM; in the experiment on NCI-H522 lung it was over 100 µM; in the experiment with A549 NSCLC, over 100 µM; with DU-145 prostate, over 100 µM; in the experiment with SK-MEL-5 melanoma it was over 100 µM. Also, the TGI with NCI/ADR-RES ovarian is over 100 µM; with U251 CNS it was over 100 µM; with SF-268 CNS, 62 µM; in the experiment on HS 578T breast, 19.6 µM; in the experiment with SF-295 CNS, over 100 µM.

Take `CCOC(=O)CC[C@H](NC(=O)c1ccc(CNc2nc3cc(C(F)(F)F)ccc3nc2C(=O)OCC)cc1)C(=O)OCC`: the TGI in the experiment on HCT-15 colon, in the experiment with NCI-H23 lung, in the experiment on HT29 colon, in the experiment on OVCAR-8 ovarian, in the experiment with SK-OV-3 ovarian and in the experiment on KM12 colon was over 100 µM each time. Further, the TGI in the experiment with UACC-62 melanoma was 43 µM; with SN12C renal it was over 100 µM; in the experiment with SNB-75 CNS, 41.3 µM; in the experiment on NCI-H522 lung it was 29.1 µM; in the experiment with A549 NSCLC it was over 100 µM; in the experiment on DU-145 prostate, over 100 µM. Moreover, the TGI with SK-MEL-5 melanoma was over 66.6 µM; in the experiment with NCI/ADR-RES ovarian, over 100 µM; in the experiment on U251 CNS, 18.5 µM; in the experiment with SF-268 CNS it was 34.4 µM; with HS 578T breast, 19.7 µM; in the experiment with SF-295 CNS, 24.7 µM.

With `O=C1CC(C(O)C(O)C(O)CO)CC(=O)N1` (stereo not given), the TGI in the experiment on HCT-15 colon, in the experiment on NCI-H23 lung, in the experiment with HT29 colon, in the experiment with OVCAR-8 ovarian, in the experiment with KM12 colon and in the experiment on SN12C renal was over 100 µM each time. The TGI in the experiment on HCC-2998 colon, in the experiment on SNB-75 CNS, in the experiment on NCI-H522 lung, with A549 NSCLC, in the experiment with DU-145 prostate and in the experiment on SK-MEL-5 melanoma was over 100 µM each time. Further, the TGI with NCI/ADR-RES ovarian, in the experiment with U251 CNS, in the experiment on SF-268 CNS, in the experiment on HS 578T breast and in the experiment with SF-295 CNS was over 100 µM in each case. Further, in the experiment on DU-145 prostate, the GI50 is over 100 µM.

For `Cc1cc(C)c(-n2c(C)c(C)c(C#N)c2N)c(C)c1`, the TGI in the experiment with HCT-15 colon, in the experiment with NCI-H23 lung, in the experiment with HT29 colon, in the experiment with OVCAR-8 ovarian, with SK-OV-3 ovarian and in the experiment with KM12 colon was over 100 µM each time. For the same molecule, the TGI is over 100 µM with SN12C renal; over 100 µM in the experiment on SNB-75 CNS; 57.4 µM in the experiment on NCI-H522 lung; over 100 µM with A549 NSCLC; over 100 µM in the experiment with DU-145 prostate; 37.2 µM with SK-MEL-5 melanoma. The TGI was over 100 µM in the experiment on NCI/ADR-RES ovarian; 49.7 µM in the experiment with U251 CNS; over 100 µM with SF-268 CNS; over 100 µM in the experiment with HS 578T breast; over 100 µM with SF-295 CNS.

For `S=C(Nc1ccc(Cl)cc1)c1ccc(CN2CCCCC2)s1`, the TGI is over 100 µM with HCT-15 colon; 8.63 µM in the experiment with NCI-H23 lung; 19.5 µM in the experiment with HT29 colon; 27.1 µM in the experiment on OVCAR-8 ovarian; 56.8 µM in the experiment on KM12 colon; 21.7 µM with UACC-62 melanoma. Besides, the TGI in the experiment on SN12C renal was 39.2 µM; with HCC-2998 colon it was 21.6 µM; with NCI-H522 lung, 75 µM; in the experiment with A549 NSCLC, over 100 µM; in the experiment with DU-145 prostate, over 100 µM; with SK-MEL-5 melanoma it was 15.1 µM. Moreover, the TGI in the experiment on NCI/ADR-RES ovarian, with U251 CNS, with SF-268 CNS and in the experiment on HS 578T breast was over 100 µM each time.

As for `NNC(=O)CC(=O)Nc1ccccc1Cl`, the TGI in the experiment with HCT-15 colon, with NCI-H23 lung, in the experiment with HT29 colon, in the experiment with OVCAR-8 ovarian, in the experiment on SK-OV-3 ovarian and in the experiment on KM12 colon was over 100 µM in each case. The TGI with UACC-62 melanoma, with SN12C renal, in the experiment on SNB-75 CNS, in the experiment with NCI-H522 lung, with A549 NSCLC and in the experiment on DU-145 prostate was over 100 µM throughout. For the same molecule, the TGI in the experiment on SK-MEL-5 melanoma, in the experiment with NCI/ADR-RES ovarian, with U251 CNS, in the experiment on SF-268 CNS, in the experiment on HS 578T breast and in the experiment on SF-295 CNS was over 100 µM in each case.

As to `CN(C)CCn1c2c(c3ccccc31)CCc1ccccc1-2`, the TGI with HCT-15 colon was 22.5 µM; in the experiment on NCI-H23 lung, 31.4 µM; in the experiment with HT29 colon it was 21.1 µM; with OVCAR-8 ovarian it was 29.5 µM; in the experiment with SK-OV-3 ovarian, 32.7 µM; in the experiment with KM12 colon, 26.3 µM. Further, the TGI with UACC-62 melanoma was found to be 25.9 µM; in the experiment on SN12C renal, 28.3 µM; with HCC-2998 colon, 16.7 µM; with NCI-H522 lung it was 29.4 µM; in the experiment on A549 NSCLC, 28.3 µM; with DU-145 prostate, 29.8 µM. The TGI amounted to 21.1 µM in the experiment on SK-MEL-5 melanoma; 29.9 µM in the experiment with NCI/ADR-RES ovarian; 26.8 µM with U251 CNS; 32.3 µM in the experiment with SF-268 CNS; 29.7 µM in the experiment on HS 578T breast; 30.6 µM in the experiment with SF-295 CNS.

For the molecule `COC(=O)c1c(O)ccc2c1c1cc3ccccc3c(O)c1n2Cc1ccccc1Cl`, the TGI in the experiment with HCT-15 colon was 77.1 µM; in the experiment on NCI-H23 lung it was 46.2 µM; in the experiment with HT29 colon, 25 µM; in the experiment on OVCAR-8 ovarian it was over 100 µM; in the experiment with SK-OV-3 ovarian, 48.6 µM; with KM12 colon, 61.8 µM. Besides, the TGI is 65.4 µM in the experiment with UACC-62 melanoma; over 100 µM with SN12C renal; 47.7 µM in the experiment on HCC-2998 colon; 29.5 µM with NCI-H522 lung; over 100 µM in the experiment with A549 NSCLC; over 100 µM in the experiment on DU-145 prostate. In addition, the TGI with SK-MEL-5 melanoma was 56.2 µM; in the experiment on NCI/ADR-RES ovarian it was 64.3 µM; with U251 CNS it was over 100 µM; in the experiment with SF-268 CNS, 97.7 µM; with HS 578T breast, 84.4 µM; in the experiment with SF-295 CNS, 40.3 µM.
